The subject of data set [1] is monocytic leukemia cell line U937. Nature of the data set: Cell specificity of CD52 induction by ATRA, flow cytometry, U937. The class given is cell-based. Particulars: U937, ATRA 96 hours. How it is done: (§1) Leukemia cell lines. NB4 cells were a gift (Dr. James R. Downing, St. Jude Children's Research Hospital) and other leukemia cell lines (K562, U937 and HL-60) were purchased from ATCC (Manassas, Va.). All leukemia cell lines were cultured in RPMI 1640 medium plus 10% fetal calf serum. Cells (1×10^6) were treated with or without 1 μM ATRA (Sigma, St. Louis, Mo.) for 12, 24, 48, 72, and 96 hours at 37° C. in a 5% CO2 incubator in darkness. All experiments were repeated three times.
(§2) Flow cytometry. APL cells were treated as described above with 1 μM of ATRA for 24, 48, 72, and 96 hrs, and cell differentiation was evaluated by changes in cell morphology, CD11B and CD18 expression, and the NBT reduction test. ATRA treated cells (1×10^6) were stained with CD18-FITC (Becton Dickinson Biosciences San Jose, Calif.), CD11B-PE, and CD52-FITC antibodies (both from Serotec) following manufacturer's instructions. […] Samples were analyzed in triplicate.
(§3) Cell specificity of CD52 expression induction by ATRA. To determine the cell specificity of ATRA-induced CD52 expression, other leukemia cell lines were tested and compared with NB4 under assay conditions used for the NB4 cells.
In general terms: A flow cytometer gives signals particle by particle.

Data set [2] relates to NB4 cells. The experiment in a line: Flow cytometry of CD52, CD11B, CD18 surface expression in NB4 cells.
In data set [3] the test system is NB4 cells. The experiment in a line: RT-PCR analysis of CD52 mRNA in NB4 cells. The data set is classed as cell-based, human. The settings on record: ATRA 12-96 hr, not detectable in untreated cells. How it is done:
(§4) Reverse transcriptase (RT)-PCR. NB4 cells were cultured and treated with or without ATRA as described above. Some assays were performed using other cell lines including the erythroblastic leukemia cell line K562, the monocytic leukemia cell line U937 and the HL-60 cell line, a human myeloblastic leukemia cell line lacking the t(15; 17) translocation. Total RNA was isolated from the cells and used for CD52 cDNA synthesis by RT-PCR. The cDNA was synthesized in a 20 μl reaction mixture containing 5 μg RNA, 5 mM dNTP, 0.1 μg random primers and 200 U reverse transcriptase, and the mixture was incubated at 42° C. for 1 hr. The cDNA was amplified for 30 cycles with denaturation at 94° C. for 30 seconds, annealing at 56° C. for 30 seconds and extension at 72° C. for 1 min. Amplified products were sequenced and confirmed by comparison with sequence data from GenBank.

Data set [4] deals with NB4 cells. The experiment in a line: cDNA microarray analysis of ATRA-induced NB4 cell gene expression. Particulars: 96 hr.
For data set [5], the system named is NB4 cells. The experiment in a line: Western blot analysis of CD52 protein in NB4 cells. The class given is cell-based, human. The settings on record: ATRA-treated vs untreated. How it is done:
Western blot analysis. Cell lysates from control and ATRA-treated NB4 cells were separated on a 4%-20% gradient SDS-polyacrylamide gel and then transferred to PVDF membrane (Millipore, Bedford, Mass.) using a semidry electroblot chamber. The membrane was blocked overnight with 5% dry-milk in Tris-buffered saline and then incubated with anti-CD52 antibody (Serotec, Inc., Raleigh, N.C.) for 1 hour at room temperature. The binding of primary antibody was detected by using peroxidase-coupled second antibody (Sigma). Bound peroxidase was detected by the Super Signal Substrate (Pierce, Rockford, Ill.).

Data set [6] relates to NB4 cells. The experiment in a line: Cell cycle analysis of ATRA-treated NB4 cells (propidium iodide, flow cytometry). The class given is cell-based, human. Particulars: 1 μM ATRA, 12-96 hrs, PI staining. How it is done:
as §1
(§5) Assessment of cell differentiation. ATRA-induced NB4 cell differentiation was evaluated by morphological assessment, by flow cytometry for expression of cell surface antigens related to granulocytic differentiation and maturation such as CD11B/CD18-integrins (Gahmberg C G, Curr. Opin. Cell Biol. 9: 643-650, 1997) and by the nitroblue tetrazolium (NBT) reduction test, which measures myelocyte maturity (Idres N et al., Cancer Res. 61: 700-705, 2001). For cell cycle analysis, the cells were stained with propidium iodide (PI) and analyzed by a fluorescence-activated cell sorting analysis.

The next data set deals with HL-60 cells. Nature of the data set: Cell specificity of CD52 induction by ATRA, flow cytometry, HL-60. The data set is classed as cell-based, human. Particulars: HL-60, lacking t(15;17), ATRA 96 hours. How it is done: as §1
as §4, with “The cDNA was amplified for 30 cycles with denaturation at 94° C. for 30 seconds, annealing at 56° C. for 30 seconds and extension at 72° C. for 1 min. Amplified products were sequenced and confirmed by comparison with sequence data from GenBank.” left out
Flow cytometry. APL cells were treated as described above with 1 μM of ATRA for 24, 48, 72, and 96 hrs, and cell differentiation was evaluated by changes in cell morphology, CD11B and CD18 expression, and the NBT reduction test. […] Samples were analyzed in triplicate. […]

For data set [7], the system named is erythroblastic leukemia line K562. The experiment in a line: Cell specificity of CD52 induction by ATRA, flow cytometry, K562. Particulars: K562, ATRA 96 hours. The data set is classed as cell-based. How it is done: as §1, §2, §3
The test system of another data set is newly diagnosed APL. Particulars: ATRA therapy; cited from earlier work.
Data set [8] concerns NB4 cells. Nature of the data set: ATRA-induced NB4 cell differentiation (morphology, CD11B/CD16 flow cytometry, NBT reduction test). The class given is cell-based, human. The settings on record: 1 μM ATRA. How it is done: as §1, §5
The conditions of data set [9]: cited from earlier work.
Data set [10] concerns normal and malignant lymphocytes. Particulars: clinical studies; cited from earlier work.

Turning to `CC1=C(/C=C/C(C)=C/C=C/C(C)=C/C(=O)O)C(C)(C)CCC1` [ATRA, all-trans-retinoic acid], in data set [1], the “expression of CD11B” value is on record as “slightly increased” and the “expression of CD52” value was “did not affect”. Also, the “maximal CD52 surface expression” value in the data set with NB4 cells [2] (1 μM ATRA, 48 to 96 hr) is approximately 90%. Also, in the data set on NB4 cells [2] (96 hr of ATRA exposure), the “cell population co-expressing CD11B and CD52” value was “approximately 80%”; the “cells expressing only CD11B” value was “approximately 10%”; the “cells expressing only CD52” value is recorded as “approximately 5%”. The “up-regulation of both CD11B and CD52” value in the data set with NB4 cells [2] (NB4, ATRA 96 hours) is given as “robust up-regulation”. Also, the “expression of CD52 mRNA” value with NB4 cells [3] is reported as “rapidly induced”. The “CD52 mRNA expression, fold over control” value in the data set on NB4 cells [4] (1 μM ATRA, peak) was found to be 6.49 fold. Moreover, the “expression of gene gf206—339D4, fold of control” value in the data set on NB4 cells [4] (ATRA) is given as “more than 58 fold”. For the same compound, the “CD52 protein bands of 21-28 kDa” value with NB4 cells [5] is recorded as “only detected in ATRA-treated cells”. For the same compound, the S-phase cells entry with NB4 cells [6] is reported as “decrease of S-phase cells”. The CD52 up-regulation entry with HL-60 cells is given as “not up-regulated”. Also, in data set [7], the CD11B expression result was “did not induce” and the CD52 expression result is reported as “did not induce”. Moreover, the “complete remission of patients” value with newly diagnosed APL is reported as “up to 85%”. For the same compound, in the data set on NB4 cells [8] (24 to 96 hrs and later), the “maximal differentiation (CD11B+ and NBT+ cells)” value is recorded as 85%. For the same compound, the “morphologic change in NB4 cells” value with NB4 cells [8] (end of 24 hrs) is “No obvious morphologic change”. Also, in the data set on NB4 cells [8] (flow cytometry), the CD16 expression result is reported as “failed to express CD16”.
Regarding `CC1=C(/C=C/C(C)=C/C=C/C(C)=C/CO)C(C)(C)CCC1` [retinol], in data set [9], the “solubility in ethanol, methanol, ether, fats, and oil” value is given as “soluble”; the “solubility in water or aqueous salt solutions” value is listed as “practically insoluble”.
In the case of “CAMPATH-1H: A humanized anti-CD52 monoclonal antibody”, the “depletion of normal and malignant lymphocytes in vivo” value in data set [10] is reported as “extremely effective”.

The values are drawn from patent US20030124127A1, “Targeting leukemia cells” (priority 2001, published 2003).
